Like-named read-outs stand apart in the source and are kept apart here. Marks after values point to notes of the source that are not given here.

The results in this text go back to PMC4735493, “The Biological Effects of Bilirubin Photoisomers” (PLoS ONE, 2016).

Data set [1] deals with BLVRA. Description: Gene expression by real-time PCR: BLVRA. Format: cell-based, human. Particulars: SH-SY5Y; bilirubin 24 μM, PI 15%; median (IQ range), n = 5; 1 hr exposure. On the procedure: (§1) Briefly, total RNA was isolated in TriReagent (Sigma-Aldrich, St Louis, MO, USA) according to the manufacture's protocol and stored at -80°C until analysis. RNA quantity and purity were evaluated spectrophotometrically at 260 nm, and RNA integrity was evaluated by agarose gel electrophoresis. Retrotranscription of total RNA (1 μg) was performed with an iScript cDNA Synthesis Kit (Bio-Rad Laboratories, Hercules, CA, USA) according to the manufacturer's instructions. The final cDNA was conserved at -20°C until used. The primers for the targeted genes and the two housekeeping genes [hypoxanthine-guanine phosphoribosyltransferase (Hprt1) and glyceraldehydes 3-phosphate dehydrogenase (Gapdh)] were designed using Beacon Designer 2.0 software (PREMIER Biosoft International, Palo Alto, CA, USA). The quantitative analysis of gene expression was performed by real-time PCR. […] The relative quantification was made using iCycler iQ software, version 3.1 (Bio-Rad Laboratories, Hercules, CA, USA), by the ΔΔCt method, taking into account the efficiencies of the individual's genes, and normalizing the results to the two housekeeping genes. […] The results are expressed as the mean ± SD.
Background: In qPCR the cycle at which signal appears reflects the starting amount.

Data set [2] concerns Cyclin E. Description: Gene expression by real-time PCR: Cyclin E. In kind it is cell-based, human. Particulars: SH-SY5Y; bilirubin 24 μM, PI 15%; median (IQ range), n = 5. How it is done: as §1
The nature of data set [3]: Stability of pigments in the incubation medium by HPLC.
Protocol: The HPLC analyses were performed using an Agilent 1200 system (CA, USA) with a diode-array detector. […] The mobile phase consisted of 0.1 M di-n-octylamine acetate in methanol and water; the stationary phase was represented by a Poroshell 120, SB-C18 column (4.6 x 100 mm, 2.7 μm; Agilent, CA, USA). Samples were prepared by mixing 20 μl of bilirubin solution with 180 μl of ice-cold 0.1 M di-n-octylamine acetate in methanol, then vortexed and centrifuged to eliminate proteins. Twenty μl of the prepared sample was injected onto the column.
To check the stability of bilirubin PI, concentrations of bilirubin IXα, and EZ/ZE-bilirubins as well as Z-lumirubin after 1 and 24 hrs in the incubation medium were analysed by HPLC method (see above).
For data set [4], the system named is HMOX1. Description: Gene expression by real-time PCR: HMOX1. In kind it is cell-based, human. The following applies: SH-SY5Y; bilirubin 24 μM, PI 15%; median (IQ range), n = 5; 1 hr exposure. How it is done:
as §1

Data set [5] relates to Cyclin D1. Description: Gene expression by real-time PCR: Cyclin D1. Format: cell-based, human. Particulars: SH-SY5Y; bilirubin 24 μM, PI 15%; median (IQ range), n = 5. How it is done: as §1
Data set [6] concerns the target T1, human serum albumin (HSA) (Homo sapiens, UniProt P02768). Description: Binding constant by fluorescence quenching of intrinsic Trp fluorescence. On the procedure: Thus, the binding constant for bilirubin and lumirubin to HSA was determined by quenching of the intrinsic Trp fluorescence. […] F0 was the fluorescence of HSA without a quencher, F the fluorescence of HSA with a quencher, CL was the quencher concentration, and CP was the concentration of HSA. The effect of cooperative binding of lumirubin and bilirubin was also studied, and the results were compared to the Ka obtained in the systems with biliverdin and gossypol, which served as a displacing agent of bilirubin from HSA [31, 32].

In data set [7] the test system is heme oxygenase (HMOX). Description: Heme oxygenase activity determination (CO by gas chromatography). In kind it is cell-based, human. The following applies: SH-SY5Y; data not shown. On the procedure:
The activity of heme oxygenase (HMOX) was measured as described previously. In brief, culture media harvested from SH-SY5Y batches were added to CO-free, septum-sealed vials. CO released into the vial headspace was quantified using gas chromatography with a reduction gas analyzer (Peak Laboratories, Mountain View, CA, USA).

For data set [8], the system named is HMOX2. Description: Gene expression by real-time PCR: HMOX2. The following applies: SH-SY5Y; bilirubin 24 μM, PI 15%; median (IQ range), n = 5; 1 hr exposure. Format: cell-based, human. On the procedure: as §1
Data set [9] has as its system MRP1. Description: Gene expression by real-time PCR: MRP1. Format: cell-based, human. Particulars: SH-SY5Y; bilirubin 24 μM, PI 15%; median (IQ range), n = 5. How it is done: as §1, with “The effect of bilirubin and bilirubin PI (24 μM bilirubin (corresponding to 140 nM Bf), 15% bilirubin PI, and a mixture of bilirubin and 15% PI) on the expression of genes involved in heme catabolism and in the regulation of the cell cycle (Table 1) was investigated in SH-SY5Y cells exposed to pigments for 1 and 24 hrs, respectively. Briefly,” for “Briefly,”, “The primers for the targeted genes and the two housekeeping genes [hypoxanthine-guanine phosphoribosyltransferase (Hprt1) and glyceraldehydes 3-phosphate dehydrogenase (Gapdh)] were designed using Beacon Designer 2.0 software (PREMIER Biosoft International, Palo Alto, CA, USA).” left out

Data set [10] relates to SH-SY5Y human neuroblastoma cell line. Description: Cell viability (CellTiter-Glo and MTT). In kind it is cell-based. How it is done: The SH-SY5Y human neuroblastoma cell line was used for the in vitro studies (ATCC, Manassas, VA, USA). Authentication of the cell line was confirmed by independent laboratory (Generi Biotech, Czech Republic). The cells were tested for Mycoplasma contamination using the MycoAlert luminescence test (Lonza, Switzerland). Cells were cultured in a mixture of MEM Eagle and Ham’s F12 media (1:1, v/v), containing 15% of fetal bovine serum, in 75 cm^2 culture flasks, at 37°C, in a 5% CO2 atmosphere. For functional tests, cells were seeded at a concentration of 50,000 cells per 1 cm^2.
The effect of bilirubin (24 μM), pure bilirubin PI (5%, 15%, and 30% of bilirubin PI in complete culture media), and the combination of bilirubin with bilirubin PI on cell viability was analyzed by both MTT (Sigma, Germany) as well as by luminescent CellTiter-Glo (Promega, USA) tests, using a Sunrise Microplate Reader (Tecan, Austria) and Synergy 2 Multi-mode Microplate Reader (BioTek, USA), respectively.
(Cellular ATP, detected with luciferase, serves as a proxy for viable cell number.)

In data set [11] the test system is SH-SY5Y cells. Description: Cell cycle phase by flow cytometry (propidium iodide). In kind it is cell-based, human. Particulars: bilirubin 24 μM, PI 15%, 1 and 24 hrs exposure, data not shown. On the procedure:
After centrifugation (310 x g; RT; 6 min), the sediments were re-suspended in 1 ml of staining solution in PBS containing 0.1% v/v Triton X-100, 20 μg/ml propidium iodide (PI), and 0.2 mg/ml DNAse free RNaseA. Samples were incubated in the dark for 30 min at RT, and subjected to FACS analysis (cytometer BD FACSCalibur TM; and CellQuest software, BD Biosciences, San Jose, CA). Data were collected for 10,000 events per sample.
(Flow cytometry measures light scatter and fluorescence of single cells or particles in a stream.)

Data set [12] concerns MDR1. Description: Gene expression by real-time PCR: MDR1. Particulars: SH-SY5Y; bilirubin 24 μM, PI 15%; median (IQ range), n = 5. In kind it is cell-based, human. How it is done: as §1, with “The effect of bilirubin and bilirubin PI (24 μM bilirubin (corresponding to 140 nM Bf), 15% bilirubin PI, and a mixture of bilirubin and 15% PI) on the expression of genes involved in heme catabolism and in the regulation of the cell cycle (Table 1) was investigated in SH-SY5Y cells exposed to pigments for 1 and 24 hrs, respectively. Briefly,” for “Briefly,”, “The primers for the targeted genes and the two housekeeping genes [hypoxanthine-guanine phosphoribosyltransferase (Hprt1) and glyceraldehydes 3-phosphate dehydrogenase (Gapdh)] were designed using Beacon Designer 2.0 software (PREMIER Biosoft International, Palo Alto, CA, USA).” left out

The target of data set [13] is T1, human serum albumin (HSA). Description: Characterization of albumin binding sites by circular dichroism (CD) spectroscopy with marker ligands. An excerpt:
CD spectra were obtained using a J-810 spectropolarimeter (Jasco, Japan) and analyzed as described elsewhere. […] For determination of the subdomain for lumirubin binding two compounds were used, hemin and bilirubin, as marker ligands for subdomain IB and IIA, respectively.

T1 sequence (P02768 25-609): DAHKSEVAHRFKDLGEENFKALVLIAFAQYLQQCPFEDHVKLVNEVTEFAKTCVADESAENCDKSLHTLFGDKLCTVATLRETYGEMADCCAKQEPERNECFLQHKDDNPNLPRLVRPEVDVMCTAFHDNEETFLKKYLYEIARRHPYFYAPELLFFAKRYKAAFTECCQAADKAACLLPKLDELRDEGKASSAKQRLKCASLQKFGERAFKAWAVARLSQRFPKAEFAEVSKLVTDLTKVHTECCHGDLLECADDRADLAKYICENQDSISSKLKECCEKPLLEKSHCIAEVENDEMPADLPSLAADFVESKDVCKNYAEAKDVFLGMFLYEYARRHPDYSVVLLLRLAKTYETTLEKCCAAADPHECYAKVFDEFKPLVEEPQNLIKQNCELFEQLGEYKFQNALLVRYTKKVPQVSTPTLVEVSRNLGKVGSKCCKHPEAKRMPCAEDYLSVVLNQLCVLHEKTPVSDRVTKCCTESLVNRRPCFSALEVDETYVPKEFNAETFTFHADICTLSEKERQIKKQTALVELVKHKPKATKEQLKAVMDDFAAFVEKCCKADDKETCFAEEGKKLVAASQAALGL

As for `C=CC1=C(C)/C(=C/c2[nH]c(Cc3[nH]c(/C=C4\NC(=O)C(C)=C4C=C)c(C)c3CCC(=O)O)c(CCC(=O)O)c2C)NC1=O` [bilirubin, Z,Z-Bilirubin IXα], in [1], the “BLVRA mRNA expression” value is given as 142.9 (109–179) % of control. For the same molecule, in [2], the “Cyclin E mRNA expression” value is 78.9 (50–126) % of control. In addition, the “Stability after 24 hrs in the incubation medium” value in data set [3] was “stable”. In addition, the “HMOX1 mRNA expression” value in data set [4] is given as 232.2 (197–240) ^* % of control. The “Cyclin D1 mRNA expression” value in data set [5] is on record as 71.8 (64–157) % of control. The Kd in data set [6] is 5.56 nM. In addition, the “Ka, binding constant bilirubin-(HSA-biliverdin)” value in data set [6] (bilirubin binding to HSA in presence of biliverdin) was “(1.1±0.4)·10^8 M^-1”. The “Ka, binding constant bilirubin-(HSA-gossypol)” value in data set [6] (bilirubin binding to HSA in presence of gossypol (displacer)) is “(1.4±0.2)·10^5 M^-1”. Further, in [6] (bilirubin binding to HSA in presence of lumirubin), the “Ka, binding constant bilirubin-(HSA-lumirubin)” value was “(8.7±1.3)·10^7 M^-1”. In [7], the “Effect on HMOX activity” value is recorded as “not translated onto increase of HMOX activity”. For the same molecule, the “HMOX2 mRNA expression” value in data set [8] is given as 130.3 (129–166) ^* % of control. The “MRP1 mRNA expression” value in data set [9] is given as 76.3 (71–90) % of control. The “Effect on cell viability, short-term exposure” value in [10] (60 min exposure, data not shown) was “did not have any effect on cell viability”. The “Effect on cell viability, 24 hr” value in data set [10] (24 hr, bilirubin 24 μM, PI up to 30%, n = 7) was “significantly reduced”. Besides, the “Effect on cell viability, 48 hr” value in data set [10] (48 hr, bilirubin 24 μM, PI up to 30%, n = 4) is reported as “significantly reduced”. Also, the “Effect on cell cycle progression” value in data set [11] is “no effect on the cell cycle progression”. Further, in data set [12], the “MDR1 mRNA expression” value is 54.9 (35–84) % of control.

As for `C=CC1=C(C)/C(=C/c2[nH]c(CC3=C(CCC(=O)O)C4(C)CC=C5C(=CC4=N3)NC(=O)C5C)c(CCC(=O)O)c2C)NC1=O` (stereo not shown) [lumirubin, Z-Lumirubin IXα], in data set [13] (both bilirubin and hemin bound to HSA, molar ratio 1/1/1), the “Effect on bilirubin binding to HSA (CD signal)” value is on record as “moderately affects bilirubin binding to HSA”. In addition, the “Localization of binding site on HSA” value in data set [13] (marker ligands hemin (IB) and bilirubin (IIA), molar ratio 1/1/1) is listed as “subdomain IB”. The “Number of binding sites on HSA” value in data set [13] (pigment/HSA 1/1, 1.5 x 10^-5 mol/L, PBS pH 7.4) was “one binding site”. Further, in [3], the “Concentration remaining after 24 hrs in the incubation medium” value was found to be 31%. Besides, the Kd in data set [6] (ligand bound to HSA alone, fluorescence quenching, read-out: Ka, binding constant for the ligand-HSA complex) is 1080 nM.
